The values that follow come from US10435447B2, “Bacteriocidal peptides and uses thereof” (priority 2015, dated 2019).

Data set [1] relates to 19 selected strains of Gram-negative bacteria. The data set is classed as cell-based. Particulars: for antibacterial / bacteriocidal activity (in words): 19 Gram-negative strains; for number of the 19 Gram-negative strains inhibited: peptide at 16 μg/ml (~4 μM). From the text: FIG. 3. […] FIG. 3A. […] FIG. 3B. […] FIG. 3C. […] FIG. 3D. […] FIG. 3F.
The subject of data set [2] is human red blood cells (hRBCs). The note with it: human RBCs.
Data set [3] concerns Toll-like receptor 3 (TLR3). Put plainly: IL-6 ELISA, TLR3 signaling with poly(I:C) in BEAS-2B cells. The data set is classed as cell-based, human. On the technique in general: An ELISA detects its analyte on a solid surface through an enzyme-linked reagent.
Method: Innate immune signaling by endogenous Toll-like receptor 3 (TLR3) in BEAS-2B cells in response to double-stranded RNA and various bacteriocidal peptides. IL-6 cytokine produced in response to signal transduction by TLR3 and the double-stranded RNA mimic, poly(I:C), was quantified using ELISA. Where present, the peptides were added to the media of BEAS-2B cells to a final concentration of 2 μM. […] All assays were performed in three independent samples and the mean and one standard error is shown above the bars.

Converted amounts (≈) assume the structure as drawn. “Also recorded” adds a separate entry of the source. Read-outs that look alike come from different tables or passages of the source. Residues, ends and D or L forms follow the SMILES beside them. No end group written: not given here. Where only a bound is given, the exact number is not on record here.

Consider `CC[C@H](C)[C@H](NC(=O)[C@@H](NC(=O)[C@@H]1CCCN1C(=O)[C@H](CO)NC(=O)[C@H](CC(C)C)NC(=O)[C@H](CCCCN)NC(=O)[C@H](CCCCN)NC(=O)[C@H](Cc1ccccc1)NC(=O)[C@H](CC(C)C)NC(=O)[C@H](CCCCN)NC(=O)[C@H](CCCCN)NC(=O)[C@H](Cc1ccccc1)NC(=O)[C@H](CCCCN)NC(=O)[C@H](CCCCN)NC(=O)[C@H](CCCNC(=N)N)NC(=O)[C@H](Cc1ccccc1)NC(=O)[C@H](CCCNC(=N)N)NC(=O)[C@H](CCCCN)NC(=O)[C@H](Cc1ccccc1)NC(=O)[C@H](CCCNC(=N)N)NC(=O)CN)C(C)C)C(=O)N1CCC[C@H]1C(=O)N[C@@H](CC(C)C)C(=O)N[C@@H](CC(C)C)C(=O)N[C@@H](Cc1c[nH]cn1)C(=O)N[C@@H](CC(C)C)C(=O)NCC(=O)O` [BMAP-27] (H-GRFKRFRKKFKKLFKKLSPVIPLLHLG-OH; N-terminus and C-terminus assumed), for which the “antibacterial / bacteriocidal activity (in words)” value in data set [1] is “most potent antibacterial activities; also recorded: most effective”. Moreover, the MIC (commonly the lowest concentration found to suppress growth) against E. faecalis was more than 32 µg/mL.
For `CC[C@H](C)[C@H](NC(=O)[C@H](CCCCN)NC(=O)[C@H](CCCNC(=N)N)NC(=O)CNC(=O)[C@H](CC(C)C)NC(=O)[C@H](CCCCN)NC(=O)[C@H](CCC(N)=O)NC(=O)[C@@H](NC(=O)[C@H](CCCNC(=N)N)NC(=O)[C@H](CCCCN)NC(=O)[C@H](CCCNC(=N)N)NC(=O)[C@@H](NC(=O)[C@H](CCCCN)NC(=O)[C@H](CCCNC(=N)N)NC(=O)[C@H](Cc1ccccc1)NC(=O)[C@H](CCCCN)NC(=O)[C@H](CCCCN)NC(=O)[C@H](CCCNC(=N)N)NC(=O)[C@H](CC(C)C)NC(=O)CN)[C@@H](C)O)[C@@H](C)CC)C(=O)NCC(=O)N[C@@H](CCCCN)C(=O)N[C@H](C(=O)NCC(=O)N[C@@H](CCCNC(=N)N)C(=O)N[C@@H](CCCCN)C(=O)N[C@H](C(=O)N[C@@H](Cc1c[nH]c2ccccc12)C(=O)N[C@@H](CCCCN)C(=O)N[C@@H](C)C(=O)N[C@@H](Cc1c[nH]c2ccccc12)C(=O)N[C@@H](CCCNC(=N)N)C(=O)N[C@@H](CCC(=O)O)C(=O)N[C@@H](Cc1ccc(O)cc1)C(=O)O)C(C)C)[C@@H](C)O` [CAP-11V1] (H-GLRKKFRKTRKRIQKLGRKIGKTGRKVWKAWREY-OH), the minimum inhibitory concentration (MIC) with E. faecalis is more than 32 µg/mL; against S. aureus (S. aureus 25923) it was 32 µg/mL (≈ 7.51 µM); in the data set on S. aureus (S. aureus 29213) it was 32 µg/mL (≈ 7.51 µM). The “RBC lysis (in words)” value in data set [2] was “decreased RBC lysis; also recorded: did not result in increased lysis of human RBCs”.
As to `CC[C@H](C)[C@H](NC(=O)[C@H](CCCCN)NC(=O)[C@H](CCC(=O)O)NC(=O)[C@H](CCCCN)NC(=O)[C@H](CO)NC(=O)[C@H](CCCCN)NC(=O)[C@H](CCCNC(=N)N)NC(=O)[C@H](Cc1ccccc1)NC(=O)[C@H](Cc1ccccc1)NC(=O)[C@H](C)NC(=O)CNC(=O)[C@H](CC(C)C)NC(=O)[C@@H](N)CC(C)C)C(=O)NCC(=O)N[C@@H](CCCCN)C(=O)N[C@@H](C)C(=O)N[C@@H](Cc1ccccc1)C(=O)N[C@@H](CCCCN)C(=O)N[C@@H](CCCNC(=N)N)C(=O)N[C@H](C(=O)N[C@H](C(=O)N[C@@H](CCC(N)=O)C(=O)N[C@@H](CCCNC(=N)N)C(=O)N[C@H](C(=O)N[C@@H](CCCCN)C(=O)N[C@@H](CC(=O)O)C(=O)N[C@@H](Cc1ccccc1)C(=O)N[C@@H](CC(C)C)C(=O)N[C@@H](CCCNC(=N)N)C(=O)O)[C@@H](C)CC)C(C)C)[C@@H](C)CC` [LL-29V2] (H-LLGAFFRKSKEKIGKAFKRIVQRIKDFLR-OH), the “RBC lysis (in words)” value in data set [2] is given as “slightly increased RBC lysis”.
On to `CC[C@H](C)[C@H](NC(=O)[C@H](CCCCN)NC(=O)[C@H](C)NC(=O)[C@H](CCCCN)NC(=O)[C@H](CO)NC(=O)[C@H](CCCCN)NC(=O)[C@H](CCCNC(=N)N)NC(=O)[C@H](Cc1ccccc1)NC(=O)[C@H](Cc1ccccc1)NC(=O)[C@H](C)NC(=O)CNC(=O)[C@H](CC(C)C)NC(=O)[C@@H](N)CC(C)C)C(=O)NCC(=O)N[C@@H](CCCCN)C(=O)N[C@@H](C)C(=O)N[C@@H](Cc1ccccc1)C(=O)N[C@@H](CCCCN)C(=O)N[C@@H](CCCNC(=N)N)C(=O)N[C@H](C(=O)N[C@H](C(=O)N[C@@H](CCC(N)=O)C(=O)N[C@@H](CCCNC(=N)N)C(=O)N[C@H](C(=O)N[C@@H](CCCCN)C(=O)N[C@@H](C)C(=O)N[C@@H](Cc1ccccc1)C(=O)N[C@@H](CC(C)C)C(=O)N[C@@H](CCCNC(=N)N)C(=O)O)[C@@H](C)CC)C(C)C)[C@@H](C)CC` [LL-29V] (H-LLGAFFRKSKAKIGKAFKRIVQRIKAFLR-OH), for which the “RBC lysis (in words)” value in data set [2] is “comparable levels of RBC lysis as LL-29”.
With `CC[C@H](C)[C@H](NC(=O)[C@H](CCCCN)NC(=O)[C@H](CCC(=O)O)NC(=O)[C@H](CCCCN)NC(=O)[C@H](CO)NC(=O)[C@H](CCCCN)NC(=O)[C@H](CCCNC(=N)N)NC(=O)[C@H](Cc1ccccc1)NC(=O)[C@H](Cc1ccccc1)NC(=O)[C@H](CC(=O)O)NC(=O)CNC(=O)[C@H](CC(C)C)NC(=O)[C@@H](N)CC(C)C)C(=O)NCC(=O)N[C@@H](CCCCN)C(=O)N[C@@H](CCC(=O)O)C(=O)N[C@@H](Cc1ccccc1)C(=O)N[C@@H](CCCCN)C(=O)N[C@@H](CCCNC(=N)N)C(=O)N[C@H](C(=O)N[C@H](C(=O)N[C@@H](CCC(N)=O)C(=O)N[C@@H](CCCNC(=N)N)C(=O)N[C@H](C(=O)N[C@@H](CCCCN)C(=O)N[C@@H](CC(=O)O)C(=O)N[C@@H](Cc1ccccc1)C(=O)N[C@@H](CC(C)C)C(=O)N[C@@H](CCCNC(=N)N)C(=O)O)[C@@H](C)CC)C(C)C)[C@@H](C)CC` [LL-29] (H-LLGDFFRKSKEKIGKEFKRIVQRIKDFLR-OH), the “RBC lysis (in words)” value in data set [2] is “reduced in RBC lysis; also recorded: did not result in increased lysis of human RBCs”.
For the compound `CC[C@H](C)[C@H](NC(=O)[C@H](CCCCN)NC(=O)[C@H](CCC(=O)O)NC(=O)[C@H](CCCCN)NC(=O)[C@H](CO)NC(=O)[C@H](CCCCN)NC(=O)[C@H](CCCNC(=N)N)NC(=O)[C@H](Cc1ccccc1)NC(=O)[C@H](Cc1ccccc1)NC(=O)[C@H](CC(=O)O)NC(=O)CNC(=O)[C@H](CC(C)C)NC(=O)[C@@H](N)CC(C)C)C(=O)NCC(=O)N[C@@H](CCCCN)C(=O)N[C@@H](CCC(=O)O)C(=O)N[C@@H](Cc1ccccc1)C(=O)N[C@@H](CCCCN)C(=O)N[C@@H](CCCNC(=N)N)C(=O)N[C@H](C(=O)N[C@H](C(=O)N[C@@H](CCC(N)=O)C(=O)N[C@@H](CCCNC(=N)N)C(=O)N[C@H](C(=O)N[C@@H](CCCCN)C(=O)N[C@@H](CC(=O)O)C(=O)N[C@@H](Cc1ccccc1)C(=O)N[C@@H](CC(C)C)C(=O)N[C@@H](CCCNC(=N)N)C(=O)N[C@@H](CC(N)=O)C(=O)N[C@@H](CC(C)C)C(=O)N[C@H](C(=O)N1CCC[C@H]1C(=O)N[C@@H](CCCNC(=N)N)C(=O)N[C@H](C(=O)N[C@@H](CCC(=O)O)C(=O)N[C@@H](CO)C(=O)O)[C@@H](C)O)C(C)C)[C@@H](C)CC)C(C)C)[C@@H](C)CC` [LL-37], the “RBC lysis (in words)” value in data set [2] is listed as “RBC lysis in a concentration-dependent manner”.
Regarding “BMAP-34: SEQ ID NO: 7, cow cathelicidin, GLFRRLRDSIRRGQQKILEKARRIGERIKDIFRG (listed as Bos taurus)”, the “enhancement of TLR3 signaling / IL-6 production (in words)” value in data set [3] is on record as “more similar to CRAMP”.
Turning to “GLRKKFRETRKEIQKLGEKIGKTGRKVWKDWREYGQIPYPCRI [CAP-11V3]”, the minimum inhibitory concentration (MIC) against E. faecalis, against S. aureus (S. aureus 25923) and in the data set on S. aureus (S. aureus 29213) was more than 32 µg/mL throughout.
Turning to “GLRKKFRETRKEIQKLGRKIGKTGRKVWKAWREYGQIPYPCRI [CAP-11V2]”, the MIC in the data set on E. faecalis, against S. aureus (S. aureus 25923) and in the data set with S. aureus (S. aureus 29213) was more than 32 µg/mL throughout.
Take “GLRKKFRKTRKRIQKLGRKIGKTGRKVWKAWREYGQIPYPCRI [CAP-11]”: in data set [1], the “antibacterial / bacteriocidal activity (in words)” value was “most potent antibacterial activities; also recorded: most effective”. Besides, in data set [1], the “number of the 19 Gram-negative strains inhibited” value is 16 strains. For the same compound, in data set [3], the “enhancement of TLR3 signaling / IL-6 production (in words)” value was “retained reduced levels of activation of TLR3 in comparison to LL-37; also recorded: retain partial enhancement of TLR3 signaling”. Also, the results for the MIC in the data set with E. faecalis, against S. aureus (S. aureus 25923) and in the data set with S. aureus (S. aureus 29213) were more than 32 µg/mL, 32 µg/mL and 32 µg/mL, respectively.
Regarding “PMAP-37: SEQ ID NO: 8, pig cathelicidin, GLLSRLRDFLSDRGRRLGEKIERIGQKIKDLSEFFQS (listed as Sus scrofa)”, the “enhancement of TLR3 signaling / IL-6 production (in words)” value in data set [3] is “more similar to CRAMP”.
Turning to “RL-37: SEQ ID NO: 2, Rhesus monkey cathelicidin, RLGNFFRKVKEKIGGGLKKVGQKIKDFLGNLVPRTAS (listed as Macaca mulatta)”, the “enhancement of TLR3 signaling / IL-6 production (in words)” value in data set [3] is reported as “retain partial enhancement of TLR3 signaling”.
With “eCATH-3: SEQ ID NO: 9, horse cathelicidin, KRFHSVGSLIQRHQQMIRDKSEATRHGIRIITRPKLLLAS (listed as Equus caballus)”, in data set [1], the “antibacterial / bacteriocidal activity (in words)” value is “least effective” and the “number of the 19 Gram-negative strains inhibited” value was “did not inhibit the growth of any”. Moreover, in data set [3], the “enhancement of TLR3 signaling / IL-6 production (in words)” value is given as “more similar to CRAMP”.
